Entries after “also recorded” stand apart in the source; their conditions may differ.
Columns and labels:
[1] = test system: rats; assay: Overall behavior and reactivities in rats; assay type: in vivo; details: i.p.
Method in brief: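 Male mice (20 ml/kg) and male rats (5 ml/kg) dosed intraperitoneally with compound in distilled water.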

[2] = test system: hypothermia, righting behavior and stereotypies induced by apomorphine; assay: Interaction with apomorphine in mice; assay type: in vivo
Method in brief: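 Male mice, groups of 6, given test compound intraperitoneally in distilled water (20 ml/kg) 30 min before subcutaneous apomorphine at 1 or 16 mg/kg. Hypothermia, righting behaviour and stereotypies scored.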

[3] = test system: stereotypies induced by apomorphine; assay: Interaction with apomorphine in rats; assay type: in vivo; details: i.p., apomorphine 0.5 mg/kg s.c.
Procedure: (§1) The results of toxicological and neuropsychopharmacological tests which were carried out with the products according to the invention have been summarized below. In these tests, solutions of the said products in distilled water were administered intraperitoneally in a volume of 20 ml/kg to male mice and in a volume of 5 ml/kg to male rats.
CRL 41 378 is administered to groups of 12 rats 0.5 h before the subcutaneous injection of 0.5 mg/kg of apomorphine.

[4] = test system: hypothermia and ptosis induced by reserpine; assay: Interaction with reserpine; assay type: in vivo; details: mice, i.p.; reserpine 2.5 mg/kg; hydrochloride
Method in brief: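 Reserpine 2.5 mg/kg i.p. given to male mice in groups of 12; test compound dissolved in distilled water and given i.p. (20 ml/kg) four hours later.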

[5] = test system: hypothermia, trembling and peripheral cholinergic symptoms induced by oxotremorine; assay: Interaction with oxotremorine; assay type: in vivo; details: mice, i.p.
Method in brief: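 Male mice, groups of 6, given the compound intraperitoneally in distilled water (20 ml/kg) 0.5 h before 0.5 mg/kg oxotremorine i.p. Hypothermia, trembling and peripheral cholinergic symptoms were assessed.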

[6] = test system: mice; assay: Four plate test; assay type: in vivo; details: i.p.
Procedure: as §1
(§2) The test is performed on groups of 10 mice 30 minutes after the administration of CRL 41 378.

[7] = test system: mice; assay: Traction; assay type: in vivo; details: i.p.
Procedure: as §1, §2

[8] = test system: mice; assay: Electric shock; assay type: in vivo; details: i.p.
Procedure: as §1, §2

[9] = test system: mice; assay: Spontaneous motility (actimeter); assay type: in vivo; details: i.p.
Method in brief: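 Male mice (6 per dose, 12 controls) received CRL 41 378 in distilled water i.p. at 20 ml/kg; 0.5 h later they were placed in an actimeter and motility was recorded for 30 minutes.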

[10] = test system: mice; assay: Intergroup aggressiveness; assay type: in vivo; details: mice, i.p.
Method in brief: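 Male mice housed 3 weeks per group in cage halves split by an opaque partition; groups of 3 given CRL 41 378 i.p. in distilled water.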

[11] = test system: mice; assay: Motility reduced by habituation to the enclosure; assay type: in vivo; details: i.p.
Procedure: as §1
After they have stayed in the actimeters for 18 hours, the mice (6 per dose, 12 control animals) receive CRL 41 378. They are immediately returned to their respective enclosures and, half an hour later, their motility is recorded for 30 minutes.

[12] = test system: mice; assay: Motility reduced by hypoxic aggression (acute hypobaric anoxia); assay type: in vivo; details: i.p., hydrochloride
Procedure: In these tests, solutions of the said products in distilled water were administered intraperitoneally in a volume of 20 ml/kg to male mice and in a volume of 5 ml/kg to male rats.

[13] = test system: mice; assay: Asphyxiant anoxia caused by gallamine triiodoethylate; assay type: in vivo; details: i.p., gallamine triiodoethylate 32 mg/kg
Procedure: as §1
Groups of 10 mice receive CRL 41 378 30 minutes before the intraperitoneal administration of 32 mg/kg of gallamine triiodoethylate (reference curarizing agent).

[14] = test system: sleep induced by barbital; assay: Interaction with barbital; assay type: in vivo; details: mice, i.p.; barbital 220 mg/kg
Procedure: as §1
Half an hour after the administration of CRL 41 378, groups of 10 mice receive an intraperitoneal injection of barbital (220 mg/kg).

[15] = test system: hypothermia induced by apomorphine; assay: Interaction with apomorphine by gastric administration; assay type: in vivo; details: Mus musculus, male mice, apomorphine 16 mg/kg s.c., read-out: dose as from which the hypothermia induced by apomorphine is opposed
Procedure: Each test product is administered gastrically to male mice, in a volume of 20 ml/kg, 0.50 h before the subcutaneous injection of 16 mg/kg of apomorphine.

[16] = test system: trembling and head twitches induced by 5-hydroxytryptophan (5-HTP); assay: Interaction with 5-hydroxytryptophan in association with an MAOI (nialamide); assay type: in vivo, male mice
Method in brief: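 Male mice (groups of 10) got nialamide 20 mg/kg intragastric at T-18 h, test product i.p. in water at T-0.5 h, then (±)-5-HTP 20 mg/kg i.p. at T. Generalized trembling, partial trembling and head twitches scored yes/no over 2 h.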

[17] = test system: pregnant rabbits; assay: Teratogenic effects on pregnant rabbits; assay type: in vivo
[18] = test system: depressions and depressive states; assay: Clinical trials in depression and depressive states; assay type: in vivo, human; details: daily oral administration to adults
Procedure: The clinical trials which have been undertaken have made it possible to determine that the daily dose to be administered orally to adults, in the treatment of depressions and depressive states, is generally between 3 and 120 mg for the products of the formulae Ia and Ib according to the invention.

[19] = test system: anesthetized dogs; assay: Cardiovascular study in anesthetized dogs; assay type: in vivo
[20] = i.p., nialamide + (±)-5-HTP, male mice

Cl.OC1(c2ccccc2)CN=CNC1 (stereo not drawn) [CRL 41 382, 5-hydroxy-5-phenyl-1,4,5,6-tetrahydropyrimidine hydrochloride]
overall behavior and reactivities ([1]; 0.5 mg/kg, 2 mg/kg and 8 mg/kg): behavior, reactivities and variations in the pupil diameter and rectal temperature which are analogous to those of the control group
overall behavior and reactivities ([1]; 32 mg/kg): moderate mydriasis for 1 h
minimal effective dose ([2]; Mus musculus, ip, read-out: dose as from which the hypothermia induced by apomorphine is antagonized): ≥ 1 mg/kg
action on righting behavior and stereotypies due to apomorphine ([2]; i.p.): practically no modification of the righting behavior and stereotypies
action on hypothermia induced by apomorphine ([2]; i.p., hydrochloride): as from a dose of 1 mg/kg and especially at doses of 16 to 64 mg/kg, CRL 41 382 opposes the hypothermia induced by apomorphine; also recorded: antagonism of the hypothermia induced by apomorphine, oxotremorine and reserpine in mice
action on stereotypies induced by apomorphine [3]: practically no modification of the stereotypies induced by apomorphine
action on hypothermia induced by reserpine [4]: At doses of 4 mg/kg and 16 mg/kg, CRL 41 382 opposes the hypothermia induced by reserpine; also recorded: At the highest dose used (64 mg/kg), CRL 41 382 has no effect on the hypothermia induced by reserpine; also recorded: antagonism of the hypothermia induced by reserpine no longer appears at the high dose of CRL 41 382 used
action on ptosis induced by reserpine [4]: practically no modification of the ptosis induced by reserpine; also recorded: absence of antagonism of the ptosis induced by reserpine
minimal effective dose ([5]; Mus musculus, ip, read-out: dose as from which the hypothermia induced by oxotremorine is antagonized): ≥ 1 mg/kg
action on signs of peripheral cholinergic stimulation induced by oxotremorine ([5]; oxotremorine 0.5 mg/kg): practically no modification of the trembling or the signs of peripheral cholinergic stimulation due to oxotremorine
action on trembling induced by oxotremorine ([5]; oxotremorine 0.5 mg/kg): practically no modification of the trembling
action on hypothermia induced by oxotremorine ([5]; oxotremorine 0.5 mg/kg, hydrochloride): the antagonism is very intense at a dose of 64 mg/kg; also recorded: antagonism of the hypothermia induced by apomorphine, oxotremorine and reserpine in mice
number of punished passes [6]: practically no modification of the number of punished passes
motor incoordination / incapacity [7]: does not cause major motor incapacity
lethal effects of electric shock [8]: aggravates (at a dose of 64 mg/kg) the lethal effects of electric shock
convulsant effects of electric shock ([8]; hydrochloride): does not oppose the convulsant effects; also recorded: absence of any anticonvulsant action
spontaneous motor activity [9]: does not modify the spontaneous motor activity of mice
intergroup aggressiveness (number of fights) [10]: practically no modification of the number of fights
resumption in the motor activity of mice accustomed to their enclosure [11]: does not cause a resumption in the motor activity of mice accustomed to their enclosure
motor recovery after acute hypobaric hypoxia [12]: At doses of 16 mg/kg and 64 mg/kg, CRL 41 382 causes an increase in the motor recovery; also recorded: moderate increase in the motor recovery of mice after acute hypobaric hypoxia
time taken for convulsions and death / lethal effects of gallamine triiodoethylate [13]: practically no modification of the time taken for convulsions and death to occur
duration of the sleep induced by barbital [14]: practically no modification of the duration of the sleep induced by barbital
minimal effective dose [15]: ≥ 2 mg/kg
analogy with β-adrenergic stimulants in the 5-HTP procedure ([16]; 5-HTP + MAOI): more closely resembles ritodrine or salbutamol
head twitches [16, 20]: practically no modification of the head twitches
partial trembling [16, 20]: moderate potentiation of the partial trembling
teratogenic effects [17]: devoid of harmful teratogenic effects on pregnant rabbits
results in human therapy (depression) [18]: excellent results
blood flows through the femoral and vertebral arteries ([19]; intraduodenal): decreases the blood flows through the femoral and vertebral arteries
blood flows through the femoral and vertebral arteries ([19]; intravenous): decreases the blood flows through the femoral and vertebral arteries

Reference: patent US4774248A, “Methods of treating depression and depressive states using 5-phenyl-1,4,5,6-tetrahydropyrimidine derivatives” (priority 1985, dated 1988)
